From ChEMBL document CHEMBL1781948, “Cytotoxic veraguamides, alkynyl bromide-containing cyclic depsipeptides from the marine cyanobacterium cf. Oscillatoria margaritifera” (2011)
The source made the active and inactive calls. The calls are words filed in the database; no cut-off is given here. Where a SMILES comes first, the peptide text is derived from it. [ ]: non-standard residue; d: D form. The star is where a group is joined. Hmpa(2S,3S) = CC[C@H](C)[C@H](O)C(=O)O; X1 = C[C@H](C(=O)*)[C@H](O)CCCC#CBr; NMeV = CN[C@H](C(=O)O)C(C)C; Hiv = CC(C)[C@H](O)C(=O)O

Tested on: NCI-H460
Test: Cytotoxicity against human H460 cells after 48 hrs by MTT assay
Format: functional

For C#CCCC[C@H]1OC(=O)[C@H](C(C)C)N(C)C(=O)[C@@H]2CCCN2C(=O)[C@H]([C@@H](C)CC)OC(=O)[C@H](C(C)C)N(C)C(=O)[C@H](C(C)C)NC(=O)[C@H]1C, the LD50 was “Active”.

For CC(C)[C@@H]1NC(=O)[C@@H](C)[C@@H](CCCC#CBr)OC(=O)[C@H](C(C)C)N(C)C(=O)[C@@H]2CCCN2C(=O)[C@H](C(C)C)OC(=O)[C@H](C(C)C)N(C)C1=O, the LD50 was “Active”.

For CCOC(=O)[C@H](C(C)C)N(C)C(=O)[C@@H]1CCCN1C(=O)[C@@H](OC(=O)[C@H](C(C)C)N(C)C(=O)[C@@H](NC(=O)[C@@H](C)[C@H](O)CCCC#CBr)C(C)C)C(C)C (X1-V[NMeV][Hiv]P[NMeV]-OEt), the LD50 was “Active”.

For CCOC(=O)[C@H](C(C)C)N(C)C(=O)[C@@H]1CCCN1C(=O)[C@@H](OC(=O)[C@H](C(C)C)N(C)C(=O)[C@@H](NC(=O)[C@@H](C)[C@H](O)CCCC#CBr)C(C)C)[C@@H](C)CC (X1-V[NMeV][Hmpa(2S,3S)]P[NMeV]-OEt), the LD50 was “Active”.

Compound CC[C@H](C)[C@@H]1OC(=O)[C@H](C(C)C)N(C)C(=O)[C@H](C(C)C)NC(=O)[C@@H](C)[C@@H](CCCC#CBr)OC(=O)[C@H](C(C)C)N(C)C(=O)[C@@H]2CCCN2C1=O [VERAGUAMIDE A] has a CC50 (NCI-H460, 48 h, read-out: LD50 (the source's name)) of 141 nM.
